In patent US20130204033A1, “ANTIPROLIFERATIVE COMPOUNDS, CONJUGATES THEREOF, METHODS THEREFOR, AND USES THEREOF” (Medarex, Inc., priority 2009, published 2013):
Where two headings read alike, the source gives them in different places.

Experiments:
Type in all cases: cell-based, human
Hep3B = experiment: ATP luminescence proliferation assay, Hep3B; conditions: Homo sapiens
Description: (§1) This example generally describes the procedures used to assay the antiproliferative activity of compounds of this invention or their conjugates. Human tumor cell lines were obtained from the American Type Culture Collection (ATCC), P.O. Box 1549, Manassas, Va. 20108, USA, and cultured according to instruction from the ATCC. Cells were seeded at 1.0×10^3 or 1.0×10^4 cells/well in 96-well plates for 3 h for ATP assays or ^3H thymidine assays, respectively. 1:3 serial dilutions of free (unconjugated) compounds or their conjugates were added to the wells. Plates were allowed to incubate for 24 to 72 h. The ^3H thymidine plates were pulsed with 1.0 μCi of ^3H-thymidine per well for the last 24 hours of the total incubation period, harvested, and read on a Top Count Scintillation Counter (Packard Instruments, Meriden, Conn.). ATP levels in the ATP plates were measured using the […]-GLO® Luminescent Cell Viability kit following the manufacturer's manual and read on a GLOMAX® 20/20 luminometer (both from Promega, Madison, Wis., USA). The EC50 values—the concentration at which an agent inhibits or reduces cell proliferation by 50% —were determined using PRISM™ software, version 4.0 (GraphPad Software, La Jolla, Calif., USA).
(§2) Using the ^3H thymidine or the ATP luminescence assay, or both, the activities of compounds of this invention were assayed against the following cancer cell lines: HCT-15 (colorectal cancer, multi-drug resistant (MDR)); Hep3B (liver cancer); LNCaP (prostate cancer, androgen receptor positive (AR^+)); MDA-MB-231 (breast cancer, estrogen receptor, progesterone receptor, and Her2 negative (triple negative)); A2058 (melanoma); U-87 MG (glioblastoma); NCI-H460 (NSCLC); A549 (NSCLC); HPAC (pancreatic cancer, primary); PC3 (prostate cancer, AR); BT474 (breast cancer, Her2 highly positive (Her2hi)); SKOV3 (ovarian cancer, Her2hi); 786-O (renal cancer); UO-31 (renal cancer, MDR); NCI-H740 (SCLC); DMS53 (SCLC); SK-BR3 (breast cancer, Her2hi); ZR-75 (breast cancer, estrogen receptor positive); OVCAR3 (ovarian cancer); HL-60 (APL); OVCAR8/Adr (ovarian cancer, MDR); CEM-Cl (ALL); Nomo-1 (AML); RPMI-8226 (MM)); Raji (lymphoma); SW-480 (colorectal cancer, metastatic); SW-620 (colorectal cancer); and H226 (lung cancer). (Not all compounds were assayed against all cell lines.)
(§3) Table 3 provides the data for the ATP luminescence proliferation assays, with an incubation period of 48, 72, or 96 h, as noted.

Raji [1] = experiment: 3H thymidine proliferation assay, Raji; conditions: Homo sapiens, Raji
Description: as §1, §2
(§4) Table 2 provides the data for proliferation assays using the ^3H thymidine method, with an incubation period of 72 h.

DMS53 [2] = experiment: ATP luminescence proliferation assay, DMS53; conditions: Homo sapiens
Description: as §1, §2, §3

ZR-75 = experiment: 3H thymidine proliferation assay, ZR-75; conditions: Homo sapiens
Description: as §1, §2, §4

A2058 [3] = experiment: 3H thymidine proliferation assay, A2058; conditions: Homo sapiens, A2058; 3H thymidine method, 72 h incubation
Description: as §1, §2, §4

Raji [4] = experiment: ATP luminescence proliferation assay, Raji; conditions: Homo sapiens
Description: as §1, §2, §3

H740 = experiment: 3H thymidine proliferation assay, H740; conditions: Homo sapiens
Description: as §1, §2, §4

OVCAR3 [5] = experiment: 3H thymidine proliferation assay, OVCAR3; conditions: Homo sapiens
Description: as §1, §2, §4

A2058 [6] = experiment: ATP luminescence proliferation assay, A2058; conditions: Homo sapiens
Description: as §1, §2, §3

OVCAR3 [7] = experiment: ATP luminescence proliferation assay, OVCAR3; conditions: Homo sapiens
Method in brief: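 Seed 1.0×10^3 cells/well (3 h); add 1:3 dilution series of compound or conjugate; incubate 48, 72 or 96 h; measure ATP by luminescence; fit EC50 (50% inhibition of proliferation).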

SK-BR3 = experiment: ATP luminescence proliferation assay, SK-BR3; conditions: Homo sapiens
Description: as §1, §2, §3

UO-31 [8] = experiment: 3H thymidine proliferation assay, UO-31; conditions: Homo sapiens
Description: as §1, §2, §4

PC3 = experiment: ATP luminescence proliferation assay, PC3; conditions: Homo sapiens
Description: as §1, §2, §3

Nomo-1 = experiment: 3H thymidine proliferation assay, Nomo-1; conditions: Homo sapiens
Description: as §1, §2, §4

UO-31 [9] = experiment: ATP luminescence proliferation assay, UO-31; conditions: Homo sapiens
Description: as §1, §2, §3

U-87 MG = experiment: ATP luminescence proliferation assay, U-87 MG; conditions: Homo sapiens
Description: as §1, §2, §3

RPMI-8226 = experiment: 3H thymidine proliferation assay, RPMI-8226; conditions: Homo sapiens
Description: as §1, §2, §4

DMS53 [10] = experiment: 3H thymidine proliferation assay, DMS53; conditions: Homo sapiens
Description: as §1, §2, §4

HCT-15 = experiment: 3H thymidine proliferation assay, HCT-15; conditions: Homo sapiens
Description: as §1, §2, §4

CEM-C1 = experiment: 3H thymidine proliferation assay, CEM-C1; conditions: Homo sapiens
Description: as §1, §2, §4

**Q.** How did the EC50 (Hep3B; 48 h, read-out: EC50 Hep3B (48 h), ATP luminescence, Hep3B, 48 h incubation) turn out when CC[C@H](C)[C@H](NC(=O)[C@H]1CCCCN1C)C(=O)N(C)[C@H](C[C@@H](OC(C)=O)c1nc(C(=O)N[C@@H](Cc2ccc(N)cc2)CC(C)C(=O)O)cs1)C(C)C (stereo partly drawn) [Compound 36] was run?
**A.** The EC50 was 86 nM.

**Q.** And the EC50 (Raji [1]; read-out: EC50, Raji, 3H thymidine method, 72 h incubation)?
**A.** The EC50 was 15 nM.

**Q.** What about the EC50 (DMS53 [2]; DMS-53, 48 h, read-out: EC50 DMS53 (48 h), ATP luminescence, DMS53, 48 h incubation) of the same molecule?
**A.** The EC50 was roughly 300 nM.

**Q.** What about the EC50 (ZR-75; ZR75, read-out: EC50, ZR-75, 3H thymidine method, 72 h incubation) of the same molecule?
**A.** The EC50 was greater than 100 nM.

**Q.** And the EC50 (A2058 [3])?
**A.** Its EC50 is 60 nM.

**Q.** And the EC50 (Raji [4]; 72 h, read-out: EC50 Raji (72 h), ATP luminescence, Raji, 72 h incubation)?
**A.** The EC50 was 24 nM.

**Q.** What about the EC50 (H740; read-out: EC50, H740, 3H thymidine method, 72 h incubation) of the same molecule?
**A.** The EC50 was greater than 100 nM.

**Q.** What about the EC50 (OVCAR3 [5]; OVCAR-3, read-out: EC50, OVCAR3, 3H thymidine method, 72 h incubation) of the same molecule?
**A.** Its EC50 is greater than 100 nM.

**Q.** And the EC50 (A2058 [6]; A2058, 72 h, read-out: EC50 A2058 (72 h), ATP luminescence, A2058, 72 h incubation)?
**A.** The EC50 was 43 nM.

**Q.** And the EC50 (OVCAR3 [7]; OVCAR-3, 48 h, read-out: EC50 OVCAR3 (48 h), ATP luminescence, OVCAR3, 48 h incubation)?
**A.** The EC50 was greater than 300 nM.

**Q.** What about the EC50 (SK-BR3; SK-BR-3, 48 h, read-out: EC50 SK-BR3 (48 h), ATP luminescence, SK-BR3, 48 h incubation) of the same molecule?
**A.** The EC50 was greater than 300 nM.

**Q.** What about the EC50 (UO-31 [8]; UO-31, read-out: EC50, UO-31, 3H thymidine method, 72 h incubation) of the same molecule?
**A.** The EC50 was greater than 100 nM.

**Q.** And the EC50 (PC3; PC-3, 48 h, read-out: EC50 PC3 (48 h), ATP luminescence, PC3, 48 h incubation)?
**A.** Its EC50 is 78 nM.

**Q.** And the EC50 (Nomo-1; NOMO-1, read-out: EC50, Nomo-1, 3H thymidine method, 72 h incubation)?
**A.** The EC50 was 124 nM.

**Q.** And the EC50 (UO-31 [9]; UO-31, 48 h, read-out: EC50 UO-31 (48 h), ATP luminescence, UO-31, 48 h incubation)?
**A.** The EC50 was 8.8 nM.

**Q.** And the EC50 (U-87 MG; 72 h, read-out: EC50 U-87 MG (72 h), ATP luminescence, U-87 MG, 72 h incubation)?
**A.** The EC50 was 37 nM.

**Q.** And the EC50 (RPMI-8226; RPMI-8226, read-out: EC50, RPMI-8226, 3H thymidine method, 72 h incubation)?
**A.** The EC50 was 48 nM.

**Q.** What about the EC50 (DMS53 [10]; DMS-53, read-out: EC50, DMS53, 3H thymidine method, 72 h incubation) of the same molecule?
**A.** Its EC50 is greater than 100 nM.

**Q.** What about the EC50 (HCT-15; HCT-15, read-out: EC50, HCT-15, 3H thymidine method, 72 h incubation) of the same molecule?
**A.** Its EC50 is 64 nM.

**Q.** What about the EC50 (CEM-C1; CEM/C1, read-out: EC50, CEM-C1, 3H thymidine method, 72 h incubation) of the same molecule?
**A.** Its EC50 is 44 nM.

**Q.** With Nc1ccc(C(=O)Nc2ccc3[nH]c(C(=O)N4C[C@@H](CCl)c5c4cc(O)c4ccccc54)cc3c2)cc1 [CBI, reference compound] as the molecule, how does the EC50 (Hep3B; ATP luminescence, 48 h incubation, read-out: EC50 Hep3B (48 h)) read?
**A.** The EC50 was 2.6 nM.

**Q.** And the EC50 (Raji [1]; 3H thymidine method, 72 h incubation, read-out: EC50, Raji)?
**A.** The EC50 was 0.013 nM.

**Q.** And the EC50 (DMS53 [2]; DMS-53, ATP luminescence, DMS53, 72 h incubation, read-out: EC50 DMS53 (72 h))?
**A.** Its EC50 is 3.8 nM.

**Q.** What about the EC50 (ZR-75; ZR75, 3H thymidine method, 72 h incubation, read-out: EC50, ZR-75) of the same molecule?
**A.** The EC50 was 1.5 nM.

**Q.** And the EC50 (Raji [4]; ATP luminescence, 72 h incubation, read-out: EC50 Raji (72 h))?
**A.** Its EC50 is 2.1 nM.

**Q.** And the EC50 (H740; 3H thymidine method, 72 h incubation, read-out: EC50, H740)?
**A.** The EC50 was 0.098 nM.

**Q.** What about the EC50 (OVCAR3 [5]; OVCAR-3, 3H thymidine method, 72 h incubation, read-out: EC50, OVCAR3) of the same molecule?
**A.** The EC50 was 0.071 nM.

**Q.** And the EC50 (A2058 [6]; ATP luminescence, A2058, 72 h incubation, read-out: EC50 A2058 (72 h))?
**A.** The EC50 was 0.2 nM.

**Q.** And the EC50 (OVCAR3 [7]; OVCAR-3, ATP luminescence, OVCAR3, 48 h incubation, read-out: EC50 OVCAR3 (48 h))?
**A.** Its EC50 is 4.1 nM.

**Q.** And the EC50 (SK-BR3; SK-BR-3, ATP luminescence, SK-BR3, 72 h incubation, read-out: EC50 SK-BR3 (72 h))?
**A.** Its EC50 is 3.1 nM.

**Q.** What about the EC50 (UO-31 [8]; UO-31, 3H thymidine method, 72 h incubation, read-out: EC50, UO-31) of the same molecule?
**A.** The EC50 was 0.035 nM.

**Q.** And the EC50 (PC3; PC-3, ATP luminescence, PC3, 48 h incubation, read-out: EC50 PC3 (48 h))?
**A.** The EC50 was 12 nM.

**Q.** What about the EC50 (Nomo-1; NOMO-1, 3H thymidine method, 72 h incubation, read-out: EC50, Nomo-1) of the same molecule?
**A.** Its EC50 is 0.016 nM.

**Q.** What about the EC50 (UO-31 [9]; ATP luminescence, UO-31, 48 h incubation, read-out: EC50 UO-31 (48 h)) of the same molecule?
**A.** The EC50 was 4.2 nM.

**Q.** And the EC50 (U-87 MG; ATP luminescence, 72 h incubation, read-out: EC50 U-87 MG (72 h))?
**A.** Its EC50 is 3.3 nM.

**Q.** What about the EC50 (RPMI-8226; RPMI-8226, 3H thymidine method, 72 h incubation, read-out: EC50, RPMI-8226) of the same molecule?
**A.** The EC50 was 0.12 nM.

**Q.** And the EC50 (DMS53 [10]; DMS-53, 3H thymidine method, 72 h incubation, read-out: EC50, DMS53)?
**A.** Its EC50 is 1.5 nM.

**Q.** What about the EC50 (HCT-15; HCT-15, 3H thymidine method, 72 h incubation, read-out: EC50, HCT-15) of the same molecule?
**A.** The EC50 was 0.04 nM.

**Q.** What about the EC50 (CEM-C1; CEM/C1, 3H thymidine method, 72 h incubation, read-out: EC50, CEM-C1) of the same molecule?
**A.** Its EC50 is 0.11 nM.
